# Laboratory results from US7879547B2, “Method of detecting the presence of asthma or allergies in a patient” (Children's Hospital Medical Center, priority 2002, dated 2011).
# Legend:
# [1] = tested on: IL4/IL5 lung transgenic mice; assay: Airway hyperresponsiveness to methacholine (Penh, barometric plethysmography) after intratracheal NOHA; format: in vivo; conditions: intratracheal NOHA 100 mcg, Penh recorded 4 hrs later, Example 20, FIG. 12
# Protocol: FIG. 12 is a line graph showing the results of airway hyperreactivity measurements (recorded as Penh) in asthmatic mice (IL4/IL5 bitransgenic lung mice) treated with intratracheal NOHA. Airway reactivity to methacholine was assessed in conscious, unrestrained mice by barometric plethysmography, using apparatus and software supplied by Buxco (Troy, N.Y.). This system yields a dimensionless parameter known as enhanced pause (Penh), reflecting changes in wave-form of the pressure signal from the plethysmography chamber combined with a timing comparison of early and late expiration, which can be used to empirically monitor airway function. […]
# lung arginase [2] = assay: Arginase activity in lung lysates incubated with NOHA in vitro (blood urea nitrogen reagent); format: biochemical, mice
# Protocol: (§1) FIGS. 11A and 11B are line graphs showing the results of treating lung lysates with N(omega)-hydroxy-L-arginine (NOHA). FIG. 11A illustrates in vitro treatment of lung lysates from […] with NOHA. FIG. 11B illustrates in vitro treatment of transgenic mice that overexpress interleukin 4 with NOHA.
# (§2) Arginase activity was measured using the blood urea nitrogen reagent (Sigma Chemical Company, St. Louis, Mo.) according to established techniques as exemplified in Wei, L. H., et al., Proc Natl Acad Sci USA 98, 9260-4. (2001); Li, H. et al. Am J Physiol Regul Integr Comp Physiol 282, R64-R69. (2002); Wei, L. H. et al., Am J Physiol Cell Physiol 279, C248-56. (2000). To measure levels of putrescine following acid extraction, ion-pair reverse phase high performance liquid chromatography was performed.
# (§3) IL-4 lung transgenic mice, which have markedly elevated level of lung arginase mRNA and activity, were used to examine the effect of NOHA in vitro and in vivo (FIG. 11). In FIG. 11A, lung lysates from IL-4 lung transgenic mice were incubated with NOHA and the arginase activity at different doses of NOHA (x axis) and arginine is shown. In FIG. 11B, IL-4 transgenic mice were treated with intratracheal NOHA (two doses: 10 and 100 mcg) and the arginase activity in the lungs was measured 4 hrs later.
# asthma = assay: Treatment of individual suffering from asthma with anti-arginase compound (inhalation); format: in vivo; conditions: inhalation of therapeutically effective amount
# Source text: An individual suffering from asthma is identified. The individual is provided with a therapeutically effective amount of N(omega)-hydroxy-L-arginine to reduce the indications of asthma.
# lung arginase [3] = assay: Lung arginase activity after intratracheal NOHA in IL-4 lung transgenic mice; format: in vivo; conditions: IL-4 transgenic mice, intratracheal NOHA 10 and 100 mcg, measured 4 hrs later, FIG. 11B
# Protocol: as §1, §2, §3
smiles,measurement,setting,value
"N=C(NO)NCCC[C@H](N)C(=O)O [NOHA, N(omega)-hydroxy-L-arginine]",development of allergen-induced airway hyperresponsiveness (Penh),[1],blocks the development of allergen-induced airway hyperesponsiveness
same,arginase activity in lung lysates,"lung arginase [2]; lung lysates from IL-4 lung transgenic mice incubated with different doses of NOHA and arginine, FIG. 11A",effective to reduce arginase activity in lung lysates
same,arginase activity in the asthmatic lung,lung arginase [2]; summary statement referring to Example 15,blocks arginase activity in the asthmatic lung
same,asthma symptoms,asthma,asthma symptoms are reduced
same,arginase activity in the lungs,lung arginase [3],effective to reduce arginase activity
